Reference: ChEMBL document CHEMBL1201862, “PubChem BioAssay data set” (2004)
Structures can show the parent of a compound that is named as a salt.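 All cell lines were grown in 96-well plates and treated with compound for 48 hours. At the GI50, growth is halved.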 Active and inactive are the calls of the source. No stated cut-off is given here; in the data, active = GI50 up to about 1.1 µM and inactive = higher.

Key:
Assay in all cases: NCI tumour cell line growth inhibition, 48 h
OVCAR-3 = test system: OVCAR-3
SR = test system: SR
IGROV-1 = test system: IGROV-1
HL-60 = test system: HL-60
RPMI-8226 = test system: RPMI-8226
HOP-92 = test system: HOP-92
HCT-15 = test system: HCT-15
Malme-3M = test system: Malme-3M
HOP-62 = test system: HOP-62
MOLT-4 = test system: MOLT-4
UO-31 = test system: UO-31
786-0 = test system: 786-0
SW-620 = test system: SW-620
OVCAR-5 = test system: OVCAR-5
SF-539 = test system: SF-539
A549 = test system: A549
DLD-1 = test system: DLD-1
NCI/ADR-RES = test system: NCI/ADR-RES
MDA-MB-435 = test system: MDA-MB-435
RXF 393 = test system: RXF 393

Row | Compound | GI50 (OVCAR-3) | GI50 (SR) | GI50 (IGROV-1) | GI50 (HL-60) | GI50 (RPMI-8226) | GI50 (HOP-92) | GI50 (HCT-15) | GI50 (Malme-3M) | GI50 (HOP-62) | GI50 (MOLT-4) | GI50 (UO-31) | GI50 (786-0) | GI50 (SW-620) | GI50 (OVCAR-5) | GI50 (SF-539) | GI50 (A549) | GI50 (DLD-1) | GI50 (NCI/ADR-RES) | GI50 (MDA-MB-435) | GI50 (RXF 393)
1 | O=C1CNNC(Cn2nc(-c3ccccc3)c3ccccc3c2=O)=N1 | > 100 µM (inactive) | > 100 µM (inactive) | > 100 µM (inactive) | > 100 µM (inactive) | > 100 µM (inactive) | > 100 µM (inactive) | > 100 µM | > 100 µM (inactive) | > 100 µM (inactive) | > 100 µM (inactive) | > 100 µM (inactive) | > 100 µM (inactive) | > 100 µM (inactive) | > 100 µM (inactive) | > 100 µM (inactive) | > 100 µM (inactive) | > 100 µM (inactive) |  |  | 
2 | CCCCCCCCCCCCC(O)C1CCC(C(O)CCCCCCC(O)CCCCCCCC2=CC(C)OC2=O)O1 (stereo not drawn) | 20.8 µM (inactive) | 0.407 µM (active) | 35.5 µM (inactive) | 3.92 µM (inactive) | 7.91 µM (inactive) | 25.8 µM (inactive) | 31.3 µM | 25.9 µM (inactive) | 42.3 µM (inactive) | 7.29 µM (inactive) | 3.08 µM (inactive) | 32.9 µM (inactive) | 8.3 µM (inactive) | > 10 µM (inactive) | > 10 µM (inactive) | 4.23 µM (inactive) |  | 1.84 µM (inactive) | 2.67 µM (inactive) | 22.9 µM (inactive)
3 | Cc1ccc(S(=O)(=O)c2c(N)c3nccn3c3nc4ccccc4nc23)cc1 | > 100 µM (inactive) | > 100 µM (inactive) | 13.5 µM (inactive) | > 100 µM (inactive) | > 100 µM (inactive) | > 100 µM (inactive) | > 100 µM | > 100 µM (inactive) | 81.7 µM (inactive) | > 100 µM (inactive) | > 100 µM (inactive) | 49 µM (inactive) | > 100 µM (inactive) | > 100 µM (inactive) | > 100 µM (inactive) | > 100 µM (inactive) | > 100 µM (inactive) |  |  | 
4 | COC(=O)C1=C(O)C(O)=C(C(=O)OC)C1 | > 100 µM (inactive) |  | > 100 µM (inactive) | > 100 µM (inactive) | > 100 µM (inactive) | > 100 µM (inactive) | > 100 µM | > 100 µM (inactive) | > 100 µM (inactive) | > 100 µM (inactive) | > 100 µM (inactive) | > 100 µM (inactive) | > 100 µM (inactive) | > 100 µM (inactive) | > 100 µM (inactive) | > 100 µM (inactive) | > 100 µM (inactive) |  |  | > 100 µM (inactive)
5 | CCOC(=O)C1Nc2ccccc2[C@H]2OCC[C@@H]12 (stereo partly drawn) | > 100 µM (inactive) |  | > 100 µM (inactive) | > 100 µM (inactive) |  |  | > 100 µM | > 100 µM (inactive) | > 100 µM (inactive) | > 100 µM (inactive) |  | > 100 µM (inactive) | > 100 µM (inactive) | > 100 µM (inactive) | > 100 µM (inactive) | > 100 µM (inactive) | > 100 µM (inactive) |  |  | > 100 µM (inactive)
6 | COC(=O)CC(C(C(=O)OCc1ccccc1)C(C)O)N1C(=O)OC(c2ccccc2)C1c1ccccc1 (stereo not drawn) | > 100 µM (inactive) | 81.5 µM (inactive) | > 100 µM (inactive) | > 100 µM (inactive) | 62.7 µM (inactive) |  | > 100 µM | > 100 µM (inactive) | > 100 µM (inactive) | 44.2 µM (inactive) | 48.9 µM (inactive) | > 100 µM (inactive) | > 100 µM (inactive) |  | > 100 µM (inactive) | 95.5 µM (inactive) | > 100 µM (inactive) |  |  | > 100 µM (inactive)
7 | CN1CCN(c2nc3cc(F)ccc3n3cccc23)CC1 | 82.8 µM (inactive) | 43.8 µM (inactive) | 30.8 µM (inactive) | 39.1 µM (inactive) | 40.6 µM (inactive) | 30.2 µM (inactive) | 32.1 µM | 25.3 µM (inactive) | 31 µM (inactive) | 23.1 µM (inactive) | 40.1 µM (inactive) | 40.4 µM (inactive) | 30.5 µM (inactive) | 51.2 µM (inactive) | 21.1 µM (inactive) | 36.9 µM (inactive) |  | 50.7 µM (inactive) | 23.4 µM (inactive) | 23.4 µM (inactive)
8 | N=C(N)c1ccc(-c2ccc(-c3ccc(C(=N)N)cc3)o2)cc1 [FURAMIDINE HYDROCHLORIDE] | > 100 µM (inactive) | 29.8 µM (inactive) | 46.3 µM (inactive) | 77.8 µM (inactive) | 18.6 µM (inactive) | 62.4 µM (inactive) | 40.9 µM | 18.6 µM (inactive) | 29 µM (inactive) | 27.4 µM (inactive) | 15.8 µM (inactive) | 23.2 µM (inactive) | 28.5 µM (inactive) | 18.9 µM (inactive) | 37.3 µM (inactive) | 34.2 µM (inactive) |  | 31.3 µM (inactive) | 30.7 µM (inactive) | 32 µM (inactive)
